In patent publication US20220356186A1, “PERK INHIBITING PYRROLOPYRIMIDINE COMPOUNDS” (HiberCell, Inc., priority 2019, published 2022):
Where two headings read alike, the source gives them in different places.

Experiments:
[1] = system: GFP-eIF2α in HEK293 cells; assay: PERK cellular assay, TR-FRET in HEK293-EGFP-eIF2a cells after tunicamycin-induced ER stress; assay type: cell-based; details: HEK293-EGFP-eIF2a cells, tunicamycin 2 hours, read-out: Cellular eIF2α IC50
Method: Stable cell lines were created in HEK293 cells using lentiviral particles harboring an expression vector for GFP-eIF2α. Cells were selected using puromycin and enriched using fluorescence activated cell sorting against GFP. HEK293-EGFP-eIF2a cells were plated at 5000 cells/well in 384-well assay plates and incubated overnight at 37° C., 5% CO2. Inhibitor compounds were added to the wells by Echo acoustic dispensing and incubated for 30 minutes at 37° C., 5% CO2 prior to induction of ER stress by addition of tunicamycin to […] for 2 hours. Cells were lysed and TR-FRET was measured in an EnVision plate reader (PerkinElmer). FRET ratio data was normalized to signal from lysates treated with DMSO vehicle control and plotted as percent inhibition against 10-point; 3-fold dilution series of inhibitors. IC50 values were calculated using 4-parameter logistical fitting in XLFit.

[2] = molecular target: T1, EIF2AK3 (PERK) catalytic domain (amino acids 536-1116) (Homo sapiens, UniProt Q9NZJ5); assay: PERK in vitro activity assay (isolated), TR-FRET kinase assay; assay type: biochemical; details: isolated PERK enzyme, 1.5 μM ATP; read-out: Biochemical IC50
T1 construct: EIF2AK3 (PERK) catalytic domain (amino acids 536-1116)
T1 sequence (Q9NZJ5 536-1116): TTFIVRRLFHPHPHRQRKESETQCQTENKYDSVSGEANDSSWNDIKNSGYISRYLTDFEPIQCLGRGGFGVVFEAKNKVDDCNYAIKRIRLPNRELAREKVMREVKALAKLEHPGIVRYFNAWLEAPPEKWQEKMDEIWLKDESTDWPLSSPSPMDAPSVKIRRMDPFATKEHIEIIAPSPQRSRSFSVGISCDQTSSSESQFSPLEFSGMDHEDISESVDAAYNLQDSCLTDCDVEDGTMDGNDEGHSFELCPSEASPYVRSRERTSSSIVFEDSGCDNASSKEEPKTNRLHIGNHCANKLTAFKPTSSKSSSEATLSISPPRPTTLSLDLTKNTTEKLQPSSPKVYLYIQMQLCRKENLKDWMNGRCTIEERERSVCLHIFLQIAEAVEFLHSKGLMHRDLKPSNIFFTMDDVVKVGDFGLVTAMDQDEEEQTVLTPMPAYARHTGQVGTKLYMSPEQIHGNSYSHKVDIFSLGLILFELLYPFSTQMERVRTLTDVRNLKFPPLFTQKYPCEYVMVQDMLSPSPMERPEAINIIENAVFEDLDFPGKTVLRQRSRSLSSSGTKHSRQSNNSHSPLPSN
From the text: PERK In Vitro Activity Assay (Isolated):
In vitro Inhibition of PERK Enzyme Activity (isolated) Recombinant human EIF2AK2 (PKR) catalytic domain (amino acids 252-551), EIF2AK3 (PERK) catalytic domain (amino acids 536-1116), GFP-eIF2a substrate, and Terbium-labelled phospho-eIF2a antibody is obtained (Invitrogen, Carlsbad, Calif.).
Express and purify HIS-SUMO-GCN2 catalytic domain (amino acids 584-1019) from E. coli. Perform TR-FRET kinase assays in the absence or presence of inhibitors in a reaction buffer consisting of 50 mM HEPES, pH 7.5, 10 mM MgCb, 1.0 mM EGTA, and 0.01% Brij-35, and 100-200 nM GFP-eIF2a substrate. […] Add test compound, initiate the reaction by addition of enzyme, and incubate at room temperature for 45 minutes. Stop the reaction by addition of EDTA to a final concentration of 10 mM, add Terbium-labelled phospho-eIF2a antibody at a final concentration of 2 nM, and incubate for 90 minutes. Monitor the resulting fluorescence in an EnVison® Multilabel reader (PerkinElmer, Waltham, Mass.). Determine TR-FRET ratios and the resulting IC50 values using a 4-parameter nonlinear logistic equation as shown: Y=(A+((B−A)/(1+((C/x)[…])))) where, Y=% specific inhibition, A=Bottom of the curve, B=Top of the curve, C=absolute IC50 (concentration causing 50% inhibition), and D=hill slope.

| IC50 [2] [nM] | SMILES | IC50 ([1]; Homo sapiens, HEK293, 2 h) [nM] | IC50 [1] [nM] |
| --- | --- | --- | --- |
| 1 to 25 | COc1ccccc1CC(=O)Nc1ccc(-c2cn(C)c3ncnc(N)c23)c(C)c1 [Example 138, N-(4-(4-amino-7-methyl-7H-pyrrolo[2,3-d]pyrimidin-5-yl)-3-methylphenyl)-2-(2-methoxyphenyl)acetamide] | 101 to 250 |  |
| 101 to 250 | Cc1nc(N)c2c(-c3ccc(NC(=O)C(O)c4cccc(F)c4)cc3Cl)cn(C)c2n1 (stereo not shown) [Example 91, N-(4-(4-amino-2,7-dimethyl-7H-pyrrolo[2,3-d]pyrimidin-5-yl)-3-chlorophenyl)-2-(3-fluorophenyl)-2-hydroxyacetamide] |  | 501 to 1000 |
| 1 to 25 | Cc1cc(NC(=O)C(O)c2cccc(Cl)c2)ccc1-c1cn(C)c2ncnc(N)c12 (stereo not shown) [Example 35, N-(4-(4-amino-7-methyl-7H-pyrrolo[2,3-d]pyrimidin-5-yl)-3-methylphenyl)-2-(3-chlorophenyl)-2-hydroxyacetamide] | 1 to 25 |  |
| 1 to 25 | Cc1cc(NC(=O)C(O)c2ccccc2Cl)ccc1-c1cn(C)c2ncnc(N)c12 (stereo not shown) [Example 33, N-(4-(4-amino-7-methyl-7H-pyrrolo[2,3-d]pyrimidin-5-yl)-3-methylphenyl)-2-(2-chlorophenyl)-2-hydroxyacetamide] | 51 to 100 |  |
| 1000 to 2000 | Cc1nc(N)c2c(-c3ccc(NC(=O)C(O)c4ccccc4Cl)cc3F)cn(C)c2n1 (stereo not shown) [Example 70, N-(4-(4-amino-2,7-dimethyl-7H-pyrrolo[2,3-d]pyrimidin-5-yl)-3-fluorophenyl)-2-(2-chlorophenyl)-2-hydroxyacetamide] | > 5000 |  |
| 251 to 500 | Cc1cc(NC(=O)C(F)(F)c2ccccc2)ccc1-c1cn(C)c2ncnc(N)c12 [Example 28, N-(4-(4-amino-7-methyl-7H-pyrrolo[2,3-d]pyrimidin-5-yl)-3-methylphenyl)-2,2-difluoro-2-phenylacetamide] | 501 to 1000 |  |
| 1 to 25 | Cc1cc(NC(=O)Cc2ccccc2Cl)ccc1-c1cn(C)c2ncnc(N)c12 [Example 149, N-(4-(4-amino-7-methyl-7H-pyrrolo[2,3-d]pyrimidin-5-yl)-3-methylphenyl)-2-(2-chlorophenyl)acetamide] | 26 to 50 |  |
| 251 to 500 | Cc1nc(N)c2c(-c3ccc(NC(=O)C(O)c4ccccc4C(F)(F)F)cc3C)cn(C)c2n1 (stereo not shown) [Example 46, N-(4-(4-amino-2,7-dimethyl-7H-pyrrolo[2,3-d]pyrimidin-5-yl)-3-methylphenyl)-2-hydroxy-2-(2-(trifluoromethyl)phenyl)acetamide] | 2000 to 3000 |  |
| 51 to 100 | Cc1cc(NC(=O)Cc2cccc3ncccc23)ccc1-c1cn(C)c2ncnc(N)c12 [Example 154, N-(4-(4-amino-7-methyl-7H-pyrrolo[2,3-d]pyrimidin-5-yl)-3-methylphenyl)-2-(quinolin-5-yl)acetamide] | 501 to 1000 |  |
| 1 to 25 | Cc1cc(NC(=O)Cc2ccccc2F)ccc1-c1cn(C)c2ncnc(N)c12 [Example 160, N-(4-(4-amino-7-methyl-7H-pyrrolo[2,3-d]pyrimidin-5-yl)-3-methylphenyl)-2-(2-fluorophenyl)acetamide] |  |  |
| 1 to 25 | Cc1ccccc1CC(=O)Nc1ccc(-c2cn(C)c3ncnc(N)c23)c(C)c1 [Example 142, N-(4-(4-amino-7-methyl-7H-pyrrolo[2,3-d]pyrimidin-5-yl)-3-methylphenyl)-2-(o-tolyl)acetamide] | 26 to 50 |  |
| 1 to 25 | Cc1cc(NC(=O)Cc2cccc(C(C)C)c2)ccc1-c1cn(C)c2ncnc(N)c12 [Example 148, N-(4-(4-amino-7-methyl-7H-pyrrolo[2,3-d]pyrimidin-5-yl)-3-methylphenyl)-2-(3-isopropylphenyl)acetamide] | 101 to 250 |  |
| 1 to 25 | Cc1cc(NC(=O)Cc2cccc(C(F)(F)F)c2)ccc1-c1cn(C)c2ncnc(N)c12 [Example 158, N-(4-(4-amino-7-methyl-7H-pyrrolo[2,3-d]pyrimidin-5-yl)-3-methylphenyl)-2-(3-(trifluoromethyl)phenyl)acetamide] |  |  |
| 26 to 50 | Cc1cc(NC(=O)Cc2cccc(F)c2)ccc1-c1cn(C)c2ncnc(N)c12 [Example 161] |  |  |

More lines, now with the values behind:

| SMILES | IC50 [2] [nM] | IC50 ([1]; Homo sapiens, HEK293, 2 h) [nM] | IC50 [1] [nM] |
| --- | --- | --- | --- |
| Cc1cc(F)cc(C(O)C(=O)Nc2ccc(-c3cn(C)c4nc(C)nc(N)c34)c(C)c2)c1 (stereo not shown) [Example 57, N-(4-(4-amino-2,7-dimethyl-7H-pyrrolo[2,3-d]pyrimidin-5-yl)-3-methylphenyl)-2-(3-fluoro-5-methylphenyl)-2-hydroxyacetamide] | 26 to 50 |  | 101 to 250 |
| Cc1cc(NC(=O)CC2CC2)ccc1-c1cn(C)c2ncnc(N)c12 [Example 163, N-(4-(4-amino-7-methyl-7H-pyrrolo[2,3-d]pyrimidin-5-yl)-3-methylphenyl)-2-cyclopropyl-acetamide] | > 5000 | > 5000 |  |
| Cc1nc(N)c2c(-c3ccc(NC(=O)C(O)c4ccccc4C(F)(F)F)cc3F)cn(C)c2n1 (stereo not shown) [Example 77, N-(4-(4-amino-2,7-dimethyl-7H-pyrrolo[2,3-d]pyrimidin-5-yl)-3-fluorophenyl)-2-hydroxy-2-(2-(trifluoromethyl)phenyl)acetamide] | 26 to 50 | 501 to 1000 |  |
| Cc1nc(N)c2c(-c3ccc(NC(=O)C(O)c4cccc(Cl)c4)cc3Cl)cn(C)c2n1 (stereo not shown) [Example 100, N-(4-(4-amino-2,7-dimethyl-7H-pyrrolo[2,3-d]pyrimidin-5-yl)-3-chlorophenyl)-2-(3-chlorophenyl)-2-hydroxyacetamide] | 26 to 50 |  | 101 to 250 |
| Cc1nc(N)c2c(-c3ccc(NC(=O)C(O)c4cccc(Cl)c4)cc3F)cn(C)c2n1 (stereo not shown) [Example 82, N-(4-(4-amino-2,7-dimethyl-7H-pyrrolo[2,3-d]pyrimidin-5-yl)-3-fluorophenyl)-2-(3-chlorophenyl)-2-hydroxyacetamide] | 1 to 25 |  | 1 to 25 |
| Cc1nc(N)c2c(-c3ccc(NC(=O)C(O)c4cccc(C(F)(F)F)c4)cc3C)cn(C)c2n1 (stereo not shown) [Example 51, N-(4-(4-amino-2,7-dimethyl-7H-pyrrolo[2,3-d]pyrimidin-5-yl)-3-methylphenyl)-2-hydroxy-2-(3-(trifluoromethyl)phenyl)acetamide] | 101 to 250 |  | 501 to 1000 |
| Cc1cccc(C(O)C(=O)Nc2ccc(-c3cn(C)c4nc(C)nc(N)c34)c(F)c2)c1 (stereo not shown) [Example 73, N-(4-(4-amino-2,7-dimethyl-7H-pyrrolo[2,3-d]pyrimidin-5-yl)-3-fluorophenyl)-2-hydroxy-2-(m-tolyl)acetamide] | 26 to 50 |  | 501 to 1000 |
| Cc1cccc(C(O)C(=O)Nc2ccc(-c3cn(C)c4nc(C)nc(N)c34)c(C)c2)c1 (stereo not shown) [Example 42, N-(4-(4-amino-2,7-dimethyl-7H-pyrrolo[2,3-d]pyrimidin-5-yl)-3-methylphenyl)-2-hydroxy-2-(m-tolyl)acetamide] | 1 to 25 | 51 to 100 |  |
| Cc1nc(N)c2c(-c3ccc(NC(=O)C(O)c4ccccc4C)cc3F)cn(C)c2n1 (stereo not shown) [Example 71, N-(4-(4-amino-2,7-dimethyl-7H-pyrrolo[2,3-d]pyrimidin-5-yl)-3-fluorophenyl)-2-hydroxy-2-(o-tolyl)acetamide] |  |  | 2000 to 3000 |
| Cc1nc(N)c2c(-c3ccc(NC(=O)C(O)c4ccccc4C)cc3F)cn(C)c2n1 (stereo not shown) [Example 72, N-(4-(4-amino-2,7-dimethyl-7H-pyrrolo[2,3-d]pyrimidin-5-yl)-3-fluorophenyl)-2-hydroxy-2-(o-tolyl)acetamide] |  |  | 26 to 50 |
